As usually defined, the IC50 is the concentration that inhibits the measured activity by half.

The structures appear in SMILES notation.

From ChEMBL document CHEMBL1800013, “Small molecule inhibitors of SHP2 tyrosine phosphatase discovered by virtual screening” (Bioorg Med Chem Lett, 2011) come the findings set out here.

The target of this experiment is T1, Receptor-type tyrosine-protein phosphatase C (Homo sapiens, UniProt P08575).
T1 sequence (P08575 whole entry): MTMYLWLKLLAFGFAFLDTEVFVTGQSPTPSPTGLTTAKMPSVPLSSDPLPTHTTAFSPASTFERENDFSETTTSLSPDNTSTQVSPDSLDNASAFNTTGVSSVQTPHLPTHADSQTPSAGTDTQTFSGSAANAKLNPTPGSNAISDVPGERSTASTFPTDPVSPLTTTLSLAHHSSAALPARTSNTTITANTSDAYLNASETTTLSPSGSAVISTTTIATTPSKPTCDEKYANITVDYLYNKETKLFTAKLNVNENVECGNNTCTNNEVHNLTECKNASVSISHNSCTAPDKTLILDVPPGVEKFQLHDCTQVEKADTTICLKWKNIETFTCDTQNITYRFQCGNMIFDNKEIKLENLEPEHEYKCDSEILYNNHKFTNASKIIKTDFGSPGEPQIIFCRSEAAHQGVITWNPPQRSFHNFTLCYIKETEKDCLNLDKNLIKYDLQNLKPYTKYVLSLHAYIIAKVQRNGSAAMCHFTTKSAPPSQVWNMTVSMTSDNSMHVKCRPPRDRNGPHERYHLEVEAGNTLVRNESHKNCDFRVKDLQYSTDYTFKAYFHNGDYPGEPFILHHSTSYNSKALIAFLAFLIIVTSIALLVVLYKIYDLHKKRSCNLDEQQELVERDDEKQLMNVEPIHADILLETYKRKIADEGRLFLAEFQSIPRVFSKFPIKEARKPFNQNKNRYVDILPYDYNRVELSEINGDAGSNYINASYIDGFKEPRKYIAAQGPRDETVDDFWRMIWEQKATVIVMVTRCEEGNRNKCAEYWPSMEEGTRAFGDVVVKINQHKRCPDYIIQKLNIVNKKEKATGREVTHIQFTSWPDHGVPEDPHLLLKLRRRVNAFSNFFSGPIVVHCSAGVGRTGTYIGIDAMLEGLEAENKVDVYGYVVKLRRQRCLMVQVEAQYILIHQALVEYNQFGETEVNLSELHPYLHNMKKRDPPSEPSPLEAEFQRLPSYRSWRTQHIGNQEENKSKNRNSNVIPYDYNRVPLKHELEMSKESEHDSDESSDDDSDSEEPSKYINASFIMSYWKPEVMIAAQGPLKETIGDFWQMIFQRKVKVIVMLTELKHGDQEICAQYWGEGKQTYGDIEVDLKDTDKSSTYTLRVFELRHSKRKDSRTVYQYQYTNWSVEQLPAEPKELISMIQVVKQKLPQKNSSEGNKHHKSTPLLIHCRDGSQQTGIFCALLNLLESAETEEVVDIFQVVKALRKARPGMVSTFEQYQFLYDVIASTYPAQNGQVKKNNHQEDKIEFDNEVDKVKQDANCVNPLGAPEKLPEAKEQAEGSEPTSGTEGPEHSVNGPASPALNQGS
As to the kind of experiment: Inhibition of CD45.

Take `Cc1cc(S(=O)(=O)O)c(S(=O)(=O)O)cc1N1N=C(C(=O)O)CC1=O`: the IC50 was greater than 100 µM.
